Measured values published in US11230526B1, “Cylcoalkenyl derivatives useful as agonists of the GPR120 and/or GPR40 receptors” (Janssen Pharmaceutica NV, priority 2018, dated 2022).

Columns and labels:
Type in all cases: cell-based
Human GPR120 short form [1] = target: T1, Human GPR120 short form (Homo sapiens, UniProt Q5NUL3); experiment: Human GPR120 calcium flux assay, Procedure Calcium A (2500 cells/well)
T1 construct: expressed in transfected cells
T1 sequence (Q5NUL3 1-361): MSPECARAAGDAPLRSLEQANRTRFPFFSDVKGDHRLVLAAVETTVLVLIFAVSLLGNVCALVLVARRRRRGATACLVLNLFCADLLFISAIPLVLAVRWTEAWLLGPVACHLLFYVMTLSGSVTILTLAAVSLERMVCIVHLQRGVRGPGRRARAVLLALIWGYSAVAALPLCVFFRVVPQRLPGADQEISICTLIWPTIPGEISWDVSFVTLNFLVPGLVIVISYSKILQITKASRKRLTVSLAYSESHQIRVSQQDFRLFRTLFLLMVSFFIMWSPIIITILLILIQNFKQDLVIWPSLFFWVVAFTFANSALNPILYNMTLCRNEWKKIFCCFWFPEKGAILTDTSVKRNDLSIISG
Method in brief: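 HEK293 cells stably expressing human GPR120 short isoform (NM_001195755.1), 2500 cells/well, serum-starved 1 h at 37 °C and loaded with Fluo-4 NW plus probenecid. FLIPR fluorescence read for 300 s after compound addition; response = Fmax−Fmin. EC50 from four-parameter concentration–response fit.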

[2] = target: T2, short form of the GPR120 receptor (Homo sapiens, UniProt Q5NUL3); experiment: Human GPR120 DiscoveRx PathHunter Beta-Arrestin assay, Procedure β-arrestin B
T2 construct: host or cells: PathHunter CHO-K1 GPR120S β-Arrestin Cell Line
T2 sequence (P32121 whole entry partner, one chain of several): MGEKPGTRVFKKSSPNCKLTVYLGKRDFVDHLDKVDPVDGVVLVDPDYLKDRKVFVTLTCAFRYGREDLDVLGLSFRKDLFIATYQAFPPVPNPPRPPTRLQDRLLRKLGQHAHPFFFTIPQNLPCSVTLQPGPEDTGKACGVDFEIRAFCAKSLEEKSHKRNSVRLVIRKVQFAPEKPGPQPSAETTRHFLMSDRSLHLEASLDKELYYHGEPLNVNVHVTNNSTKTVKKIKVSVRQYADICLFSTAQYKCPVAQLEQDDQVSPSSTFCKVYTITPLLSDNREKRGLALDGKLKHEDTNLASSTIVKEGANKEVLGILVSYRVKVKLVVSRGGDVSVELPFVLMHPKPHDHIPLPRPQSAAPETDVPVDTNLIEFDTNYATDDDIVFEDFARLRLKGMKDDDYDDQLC
From the text: Human GPR120 DiscoveRx PathHunter® Beta-Arrestin Assay Assay Principle:
The binding of an agonist (medium/long chain fatty acids or small molecule agonists) to the G-protein-coupled receptor GPR120 activates phospholipase C, leading to release of intracellular Ca^+2 through the generation of inositol 1,4,5-trisphosphate (InsP3 or IP3). GPR120 activation can also trigger intracellular signaling via recruitment of Beta-Arrestin. In the present method, agonist-induced activation of the human GPR120 receptor is monitored through the use of PathHunter® CHO-K1 GPR120 Beta-Arrestin Cell Line engineered by DiscoveRx, as detailed below. The cell lines are designed to co-express both the ProLink/Enzyme Donor (PK)-tagged GPCR and the Enzyme […] (EA)-tagged Beta-Arrestin fusion proteins. Upon GPR120 receptor stimulation/activation, the EA-tagged Beta-Arrestin portion is translocated to the tagged receptor, where the two enzyme fragments are brought within close proximity. Under these conditions, these fragments can interact and form an active Beta-gal enzyme complex through Enzyme Fragment Complementation (EFC). This active Beta-gal complex can enzymatically hydrolyse the substrate to produce a detectable light signal; therefore, activation as a function of agonist concentration can be expressed as an EC50 value to determine relative compound activities. This in vitro assay therefore serves to assess compound agonist activity of the GPR120.
In Procedure β-arrestin B the cells used were PathHunter® CHO-K1 GPR120S β-Arrestin Cell Line, expressing the short form of the GPR120 receptor (Accession #[…]), with 5000 cells/well.
The selected CHO-K1 GPR120 β-Arrestin cells were cultured in Ham's F12 media supplemented with 10% fetal bovine serum (FBS), 1% Glutamine, 1×p/s, 800 μg/mL G418 and 300 μg/mL Hygromycin B (for selection). Cell stocks were maintained and grown in a sub-confluent state using standard cell culture procedures. The day before the experiment, the cells were harvested with non-enzymatic cell dissociation buffer and re-suspended in complete growth media at the desired concentration. A Corning 384-plate was then seeded with the proper number of cells in a volume of 25 μL, per well. The seeded plates were incubated overnight at 37° C.
On the day of the experiment, the Assay Buffer containing (a) HBSS with Ca^++ and Mg^++, (b) 20 mM HEPES, and (c) 0.1% BSA stabilizer (pH 7.4) was prepared. The growth medium was gently removed from the cell plates and 20 μL of Assay Buffer added to each well. The plate was then incubated at 37° C. for 60 min. Test compounds were serially diluted in Assay Buffer to desired concentrations (more particularly to one or more of the following μM concentrations: 25, 12.5, 6.25, 3.12, 1.56, 0.78, 0.39, 0.19, 0.10, 0.05, 0.02, 0.01). Five μL of compound dilution was then added to each well and the plate incubated at 37° C. for 90 min. The detection reagents were prepared according to the manufacture's instruction. Twelve μL of the detection reagents were added to each well and the plate incubated at room temperature for 60 min.
The plates were read on an EnVision instrument, using Protocol name: Luminescence, Plate type: 384 Costar, Measurement height: 3 mm, Measurement time: 1 s, Aperture: 384 Plate aperture. The % Activity relative to the positive control was calculated using the following equation:
The % Activity values were plotted versus the concentration of test compound and fitted to a sigmoidal dose-response curve with a Hill slope=1 (fixed value) using nonlinear regression with GraphPad Prism 5.0 to calculate the EC50 values. The Fitting Equation was: Y=Bottom+(Top-Bottom)/(1+10^((Log EC50−X)*HillSlope)), where X is the log of the concentration and Y is the response.

Human GPR120 short form [3] = target: T1, Human GPR120 short form; experiment: Human GPR120 calcium flux assay, Procedure Calcium B (4200 cells/well)
Method in brief: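 HEK293 cells stably expressing human GPR120 (NM_001195755.1), 4200 cells/well, starved 1 h and loaded with Fluo-4 NW plus probenecid. Ligand-evoked calcium flux read on FLIPR for 300 s after a 10 s baseline. RFU = Fmax−Fmin; EC50 from four-parameter concentration-response fit.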

SMILES: CSc1ccc(C2=C(COc3ccc(CCC(=O)O)c(C)c3C)CCCC2)cc1 [Compound 492, 3-[2,3-dimethyl-4-[[2-(4-methylsulfanylphenyl)cyclohexen-1-yl]methoxy]phenyl]Propanoic Acid]
- EC50 (Human GPR120 short form [1]): 0.576 µM
- EC50 [2]: 0.717 µM
- EC50 (Human GPR120 short form [3]): 0.185 µM
